Experimental data as given in patent US10588934B2, “Opioid peptide” (priority 2014, dated 2020).
Like-named read-outs stand apart in the source and are kept apart here. Ends that are not written are not given here.

Tests used:
[1] = system: Swiss mice; assay: Tail flick (tail removal) nociception test; format: in vivo, Mus musculus; details: for activity profile of the group given substance+naloxone compared with saline: with serial naloxone 4 mg/kg
Protocol: (§1) In vivo analyzes: Tests were carried out on Swiss mice of the Mus musculus species, in which nociception tests (hot plate and tail removal test) were used according to Le Bars et al. (2001). Injections were administered via intraperitoneal (IP). Doses were based upon dose and molaridade of the morphine (10 mg/kg animal).
(§2) FIGS. 1,2,3 and 4 represent the raw data obtained from the experiments after statistical analysis. The symbols (*, **, #) indicate the beginning of the statistically significant activity (S) or the statistically non-significant differences (NS). Analyzes of opioid activity were performed in two classical models of studies for this activity: Tail Flick or Hot Plate test.

[2] = system: Swiss mice; format: in vivo, Mus musculus
Protocol: as §1, §2

[3] = system: trypsin; details: 37° C., 15 minutes to 4 hours, MALDI
Protocol: Representation of the fragments obtained at the different incubation times with the enzyme trypsin. Analysis performed by mass spectrometry, MALDI. The first spectrum, marked with the letter A, refers to the time of 15 minutes; The second spectrum marked with the letter B indicates the time of 30 minutes; C indicates the time of 1 hour; D indicates the time of 2 hours; E indicates the time of 4 hours and, finally, F is the control peptide (SEQ ID NO: 2).

Question: With “YGGFL [Leu-enkephalin, reference compound]” as the molecule, how does the “activity profile of the group given substance+naloxone compared with saline” value ([1]; tail-flick) read?
Answer: no significant differences in activity profile

Question: What about the “activity after administration of naloxone was discontinued” value ([2]; mouse, in vivo) of the same molecule?
Answer: activity has also been resumed

Question: What about the “activity profile of the group given substance+naloxone compared with saline” value ([2]; mouse, in vivo) of the same molecule?
Answer: no significant differences in activity profile

Question: What does the source list for “SEQ ID NO: 1: opioid peptide of formula TyrProPhe-X1-TrpGlyGly-X2-ProPro (X1 Gly or Lys; X2 Ile or Val); exact sequence not printed in the text (YPFGWGGIPP)”?
Answer: cumulative effect over time (area under the curve) ([1]; tail flick, compared with morphine and Leu-enkephalin): greater than morphine and similar to Leu-enkephalin; time from which there was no significant difference from Leu-enkephalin (peptide positive control) ([1]; tail-flick, IP, Leu-enkephalin 19.3 mg/kg, P>0.05): no significant difference throughout the assay; time at which statistically significant antinociceptive action started, in relation to saline ([1]; tail-flick, IP, dose equimolar to morphine 10 mg/kg, test of 240 min): 90 min; time from which there was no significant difference from morphine (positive control) ([1]; tail-flick, IP, morphine 10 mg/kg): 90 min; time up to which the significant antinociceptive action lasted, in relation to saline ([1]; tail-flick, IP, test of 240 min): 240 min; difference between peptide alone and peptide+naloxone (naloxone reversal) ([1]; tail-flick, serial hourly naloxone 4 mg/kg, P<0.001): Except for the time of 30 min, there were significant differences; activity profile of the group given substance+naloxone compared with saline ([1]; tail-flick): no significant differences in activity profile; time from which there were no statistically significant differences from morphine ([2]; hot plate, IP, morphine 10 mg/kg, P>0.05): 60 min; persistence of the significant difference in relation to saline ([2]; hot plate, IP, test of 240 min): at the time of 120 minutes, there was no significant difference; time at which statistically significant antinociceptive activity started, in relation to saline ([2]; hot plate, IP, test of 240 min): 60 min; difference between peptide alone and peptide+naloxone (naloxone reversal) ([2]; hot plate, serial naloxone 4 mg/kg, later discontinued): no significant differences only at 210 minutes and 240 minutes; activity after administration of naloxone was discontinued ([2]; hot plate, substance+naloxone group): returned to action; cumulative effect over time (area below the curve) ([2]; mouse, in vivo): higher cumulative effect similar to morphine and Leu-encefaiina; difference from Leu-enkephalin ([2]; mouse, in vivo): no statistically significant differences

Question: YPFKWGGVPP [SEQ ID NO: 2] was tested. Which “intensity of the major (precursor ion) peak during incubation with the enzyme” value [3] did it give?
Answer: will reduce its intensity

Question: Which results are given for C=CCN1CC[C@]23c4c5ccc(O)c4O[C@H]2C(=O)CC[C@@]3(O)[C@H]1C5 [naloxone, reference compound]?
Answer: activity profile of naloxone alone compared with saline ([1]; tail-flick, naloxone 4 mg/kg): no significant differences in activity profile; activity profile of naloxone alone compared with saline ([2]; hot plate, naloxone 4 mg/kg): no significant differences in activity profile
